Source: ChEMBL document CHEMBL1201862, “PubChem BioAssay data set” (2004)
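In this assay, cells in 96-well plates receive the compound at five concentrations for 48 hours. Endpoints are linearly interpolated between the surrounding concentrations. The concentration for 50% growth inhibition is given as GI50.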 The source made the active and inactive calls. No stated cut-off is given here; in the data, active = GI50 up to about 1.1 µM and inactive = higher.

What was measured:
Assay in all cases: NCI anticancer screen, dose series, 48 h
OVCAR-8 = tested on: OVCAR-8
K562 = tested on: K562
MDA-MB-231 = tested on: MDA-MB-231
COLO 205 = tested on: COLO 205
T47D = tested on: T47D
OVCAR-3 = tested on: OVCAR-3
SNB-75 = tested on: SNB-75
NCI-H522 = tested on: NCI-H522
SF-295 = tested on: SF-295
UO-31 = tested on: UO-31
OVCAR-4 = tested on: OVCAR-4
MOLT-4 = tested on: MOLT-4
SN12C = tested on: SN12C
NCI/ADR-RES = tested on: NCI/ADR-RES
CCRF-CEM = tested on: CCRF-CEM
SR = tested on: SR
BT-549 = tested on: BT-549
CAKI-1 = tested on: CAKI-1

Structure (SMILES) | GI50 (OVCAR-8) | GI50 (K562) | GI50 (MDA-MB-231) | GI50 (COLO 205) | GI50 (T47D) | GI50 (OVCAR-3) | GI50 (SNB-75) | GI50 (NCI-H522) | GI50 (SF-295) | GI50 (UO-31) | GI50 (OVCAR-4) | GI50 (MOLT-4) | GI50 (SN12C) | GI50 (NCI/ADR-RES) | GI50 (CCRF-CEM) | GI50 (SR) | GI50 (BT-549) | GI50 (CAKI-1)
C#CCCOC1(OC)N=NC(C)(C)O1 (configuration not stated) | > 100 µM (inactive) | > 100 µM (inactive) | > 100 µM (inactive) | > 100 µM (inactive) | > 100 µM (inactive) | > 100 µM (inactive) | > 100 µM (inactive) | > 100 µM (inactive) | > 100 µM (inactive) | > 100 µM (inactive) | > 100 µM (inactive) | > 100 µM (inactive) | > 100 µM (inactive) | > 100 µM (inactive) | > 100 µM (inactive) | > 100 µM (inactive) | – | –
CCCCCCN1CCc2c(C)c(C#N)c3nc4ccccc4n3c21 | 29.2 µM (inactive) | > 100 µM (inactive) | 5.73 µM (inactive) | 29.9 µM (inactive) | – | 11.6 µM (inactive) | 32.4 µM (inactive) | 31.4 µM (inactive) | > 100 µM (inactive) | > 100 µM (inactive) | 25.9 µM (inactive) | – | > 100 µM (inactive) | > 100 µM (inactive) | – | > 100 µM (inactive) | 65.3 µM (inactive) | –
CC(C)(C)OC(=O)NCCCC(=O)NC1(c2cc3ccccc3s2)CCCCC1 | 19 µM (inactive) | 19.5 µM (inactive) | – | 13.8 µM (inactive) | 9.66 µM (inactive) | 16.3 µM (inactive) | 5.11 µM (inactive) | 13.1 µM (inactive) | 16.6 µM (inactive) | 4.61 µM (inactive) | 20.5 µM (inactive) | 14.6 µM (inactive) | 17.5 µM (inactive) | 16.7 µM (inactive) | 11.4 µM (inactive) | 12.6 µM (inactive) | 15.1 µM (inactive) | 22.1 µM (inactive)
CCOC(=O)C(NC(=O)c1ccccc1)(N1CCN(c2cc3c(cc2F)c(=O)c(C(=O)O)cn3C2CC2)CC1)C(F)(F)F (configuration not stated) | 31.3 µM (inactive) | 20.2 µM (inactive) | 12.9 µM (inactive) | 17.1 µM (inactive) | 20.6 µM (inactive) | 23.4 µM (inactive) | 24 µM (inactive) | – | 27 µM (inactive) | 23 µM (inactive) | 22.5 µM (inactive) | 14.1 µM (inactive) | 26.4 µM (inactive) | – | 3.37 µM (inactive) | 20.5 µM (inactive) | 21.8 µM (inactive) | 19.3 µM (inactive)
O=C(c1ccco1)N1CCCN(C(=O)c2ccco2)C1=S | > 100 µM (inactive) | > 100 µM (inactive) | > 100 µM (inactive) | > 100 µM (inactive) | 7.35 µM (inactive) | > 100 µM (inactive) | – | – | – | > 100 µM (inactive) | – | > 100 µM (inactive) | > 100 µM (inactive) | > 100 µM (inactive) | > 100 µM (inactive) | – | > 100 µM (inactive) | > 100 µM (inactive)
N#Cc1c2c(c(Nc3cccc(C(F)(F)F)c3)n3c1nc1ccccc13)CCCC2 | 15.1 µM (inactive) | – | 17.5 µM (inactive) | > 100 µM (inactive) | > 100 µM (inactive) | 14.6 µM (inactive) | 10.6 µM (inactive) | 1.47 µM (inactive) | 21.8 µM (inactive) | – | 13.9 µM (inactive) | 15.2 µM (inactive) | 22.8 µM (inactive) | 14.8 µM (inactive) | – | – | 30.1 µM (inactive) | 22.5 µM (inactive)
COCCOC(=O)NCn1cc(-c2ccccc2)nn1 | > 100 µM (inactive) | > 100 µM (inactive) | > 100 µM (inactive) | > 100 µM (inactive) | – | – | – | > 100 µM (inactive) | > 100 µM (inactive) | – | > 100 µM (inactive) | > 100 µM (inactive) | > 100 µM (inactive) | > 100 µM (inactive) | > 100 µM (inactive) | > 100 µM (inactive) | > 100 µM (inactive) | > 100 µM (inactive)
CN(CC(=O)O)c1ncc2c(n1)CCCC2 | > 100 µM (inactive) | > 100 µM (inactive) | > 100 µM (inactive) | > 100 µM (inactive) | – | > 100 µM (inactive) | > 100 µM (inactive) | > 100 µM (inactive) | > 100 µM (inactive) | > 100 µM (inactive) | > 100 µM (inactive) | > 100 µM (inactive) | > 100 µM (inactive) | > 100 µM (inactive) | > 100 µM (inactive) | > 100 µM (inactive) | – | > 100 µM (inactive)
O=C(/C=C\c1ccccc1)Oc1ccc(/C=C2\CCCCC2=O)cc1 | 37.8 µM (inactive) | – | 41.6 µM (inactive) | 19.9 µM (inactive) | 92.5 µM (inactive) | 72.3 µM (inactive) | > 100 µM (inactive) | 48 µM (inactive) | 41.2 µM (inactive) | 64.7 µM (inactive) | > 100 µM (inactive) | 0.955 µM (active) | 55.3 µM (inactive) | – | 4.98 µM (inactive) | – | – | 24.3 µM (inactive)
O=C(c1ccc(Cl)cc1)N(C(=S)OCCOc1ccccc1)c1ccccc1 | 20.3 µM (inactive) | 30.4 µM (inactive) | 23.1 µM (inactive) | 19.9 µM (inactive) | 20 µM (inactive) | 17.2 µM (inactive) | – | 19.1 µM (inactive) | 27.6 µM (inactive) | 0.186 µM (active) | 18.6 µM (inactive) | 22.4 µM (inactive) | 19.3 µM (inactive) | 23.9 µM (inactive) | 13.7 µM (inactive) | – | 20.2 µM (inactive) | 17.4 µM (inactive)
NC(=O)NC(=O)c1cccc(C(=O)NC(N)=O)n1 | > 100 µM (inactive) | > 100 µM (inactive) | > 100 µM (inactive) | > 10 µM (inactive) | > 100 µM (inactive) | > 100 µM (inactive) | – | > 100 µM (inactive) | > 100 µM (inactive) | > 100 µM (inactive) | > 100 µM (inactive) | > 100 µM (inactive) | > 100 µM (inactive) | > 100 µM (inactive) | > 100 µM (inactive) | > 100 µM (inactive) | – | > 100 µM (inactive)
C=CC(C)(C)C1(CC(OC)OC)C(=O)N(C)c2ccccc21 (configuration not stated) | > 25 µM (inactive) | > 25 µM (inactive) | > 25 µM (inactive) | > 25 µM (inactive) | > 25 µM (inactive) | > 25 µM (inactive) | > 25 µM (inactive) | – | > 25 µM (inactive) | > 25 µM (inactive) | > 25 µM (inactive) | – | > 25 µM (inactive) | > 25 µM (inactive) | > 25 µM (inactive) | > 25 µM (inactive) | – | > 25 µM (inactive)
CN(C)C(=O)N1N[C@H](c2ccccc2)[C@@H]1c1ccccc1 | > 100 µM (inactive) | > 100 µM (inactive) | > 100 µM (inactive) | > 100 µM (inactive) | > 100 µM (inactive) | > 100 µM (inactive) | > 100 µM (inactive) | > 100 µM (inactive) | 72.3 µM (inactive) | > 100 µM (inactive) | > 100 µM (inactive) | > 100 µM (inactive) | > 100 µM (inactive) | > 100 µM (inactive) | > 100 µM (inactive) | – | – | > 100 µM (inactive)
Cc1cn(C2CC(OC(=O)c3ccc(Cl)cc3)C(COC(=O)c3ccc(Cl)cc3)O2)c(=O)[nH]c1=O (configuration not stated) | > 100 µM (inactive) | > 100 µM (inactive) | – | > 100 µM (inactive) | > 100 µM (inactive) | > 100 µM (inactive) | > 100 µM (inactive) | > 100 µM (inactive) | > 100 µM (inactive) | > 100 µM (inactive) | > 100 µM (inactive) | > 100 µM (inactive) | > 100 µM (inactive) | > 100 µM (inactive) | > 100 µM (inactive) | > 100 µM (inactive) | > 100 µM (inactive) | > 100 µM (inactive)
C=C1OC(c2ccccc2NC)=NC12CCCCC2 | > 100 µM (inactive) | > 100 µM (inactive) | > 100 µM (inactive) | > 100 µM (inactive) | > 100 µM (inactive) | > 100 µM (inactive) | – | > 100 µM (inactive) | > 100 µM (inactive) | > 100 µM (inactive) | > 100 µM (inactive) | > 100 µM (inactive) | > 100 µM (inactive) | > 100 µM (inactive) | > 100 µM (inactive) | – | > 100 µM (inactive) | > 100 µM (inactive)
COc1ccc2cc3c4cc5c(cc4cc[n+]3cc2c1OC)OCO5 | 2.37 µM (inactive) | 16.6 µM (inactive) | 23.4 µM (inactive) | 2.08 µM (inactive) | 17.4 µM (inactive) | 3.87 µM (inactive) | 27.8 µM (inactive) | 3.63 µM (inactive) | 5.53 µM (inactive) | 36.3 µM (inactive) | 20.6 µM (inactive) | 8.53 µM (inactive) | 2.52 µM (inactive) | > 100 µM (inactive) | 6.43 µM (inactive) | – | 1.63 µM (inactive) | –
Cc1c(N/C=C(\C#N)C(=O)c2ccc(Cl)cc2)c(=O)n(-c2ccccc2)n1C | 91.8 µM (inactive) | 97.9 µM (inactive) | > 100 µM (inactive) | > 100 µM (inactive) | – | 72.1 µM (inactive) | > 100 µM (inactive) | > 100 µM (inactive) | > 100 µM (inactive) | 64.9 µM (inactive) | > 100 µM (inactive) | – | > 100 µM (inactive) | 43.9 µM (inactive) | 38.9 µM (inactive) | – | 46.6 µM (inactive) | > 100 µM (inactive)
COc1ccccc1C(=O)c1c(NCc2ccccc2)c(=O)c1=O | > 100 µM (inactive) | 27.5 µM (inactive) | > 100 µM (inactive) | 28.3 µM (inactive) | – | > 100 µM (inactive) | > 100 µM (inactive) | 11.5 µM (inactive) | > 100 µM (inactive) | > 100 µM (inactive) | > 100 µM (inactive) | 23.4 µM (inactive) | > 100 µM (inactive) | > 100 µM (inactive) | 26.1 µM (inactive) | – | 66.8 µM (inactive) | 35.2 µM (inactive)
